Patent US10675284B2, “Treatment of B-cell malignancies by a combination JAK and PI3K inhibitors” (Incyte Corporation, priority 2014, dated 2020)
Like-named read-outs stand apart in the source and are kept apart here.

Experiments:
[1] = target: human JAK1 (a.a. 837-1142) (Homo sapiens, UniProt P23458); assay: In vitro JAK kinase assay (HTRF), JAK1; assay type: biochemical; conditions: 1 mM ATP; read-out: JAK1 IC50
[2] = tested on: Pfeiffer cells; assay: Western blot analysis of Pfeiffer cells; assay type: cell-based, human; conditions: 4 hours, then IL-10 for 15 minutes
Protocol: The following materials and methods were used in the Western blot analysis infra. Cells (5 million) were lysed in a 300 μl volume of lysis buffer. Soluble fractions were collected by centrifugation. 25 μl of cell lysate were loaded into Tris-Glycine polyacrylamide gels and subjected to electrophoresis. The proteins were transferred into nitrocellulose membrane and probed with antibodies from Cell Signaling Technology for the following proteins: phospho-Stat3 Y705, phospho-Akt 5473, pim1, pim2, pim3, c-myc, phospho-p70S6K, phosho-S6, phospho-Bad S112 and actin.
IL6 and IL10 promote cell survival through the expression of Pim2, which is dependent on JAK1 activity.
Extracts were analyzed by Western blot for pAKT and pSTAT3.

[3] = tested on: Pfeiffer cells; assay: Annexin-V staining of Pfeiffer cells (apoptosis); assay type: cell-based, human; conditions: 3 days, 10% FBS + IL10, Compound 16 at 1 μM
[4] = tested on: Pfeiffer cells; assay: Cell proliferation assay in Pfeiffer cells; assay type: cell-based, human; conditions: for IC50: Homo sapiens, Pfeiffer, 72 h, Pfeiffer cells, 3 days, read-out: IC50, cell growth
Protocol: Diffuse large B cell lymphoma cells were seeded at 2000 cell/well in 96 well culture plates in the absence or presence of 10 ng/ml IL10. Compounds were added to these cells after dilution in DMSO first, followed by dilution in culture medium (4× concentration). The cells were cultured in an incubator for 3 days with 5% CO2. Cell proliferation was assessed using the Cell titer-glow assay (Promega, Madison, Wis.).

[5] = target: human JAK2 (a.a. 828-1132) (Homo sapiens (Human), UniProt O60674); assay: In vitro JAK kinase assay (HTRF), JAK2; assay type: biochemical; conditions: IC50 ratio, 1 mM ATP
Sequence of human JAK2 (a.a. 828-1132) (O60674 828-1132): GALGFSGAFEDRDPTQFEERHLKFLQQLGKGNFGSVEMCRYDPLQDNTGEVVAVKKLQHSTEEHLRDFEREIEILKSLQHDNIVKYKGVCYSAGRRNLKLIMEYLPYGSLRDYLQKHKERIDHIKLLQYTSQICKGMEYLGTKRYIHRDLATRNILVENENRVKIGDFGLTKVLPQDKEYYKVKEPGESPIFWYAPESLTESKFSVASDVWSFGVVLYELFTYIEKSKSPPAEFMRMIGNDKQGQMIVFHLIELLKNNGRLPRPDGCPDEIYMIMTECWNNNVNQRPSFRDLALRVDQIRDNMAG

[6] = target: PI3Kδ (p110δ/p85α) (Homo sapiens (Human), UniProt O00329); assay: PI3Kδ scintillation proximity assay; assay type: biochemical; conditions: 20 μM ATP
Sequence of PI3Kδ (p110δ/p85α) (O00329 whole entry): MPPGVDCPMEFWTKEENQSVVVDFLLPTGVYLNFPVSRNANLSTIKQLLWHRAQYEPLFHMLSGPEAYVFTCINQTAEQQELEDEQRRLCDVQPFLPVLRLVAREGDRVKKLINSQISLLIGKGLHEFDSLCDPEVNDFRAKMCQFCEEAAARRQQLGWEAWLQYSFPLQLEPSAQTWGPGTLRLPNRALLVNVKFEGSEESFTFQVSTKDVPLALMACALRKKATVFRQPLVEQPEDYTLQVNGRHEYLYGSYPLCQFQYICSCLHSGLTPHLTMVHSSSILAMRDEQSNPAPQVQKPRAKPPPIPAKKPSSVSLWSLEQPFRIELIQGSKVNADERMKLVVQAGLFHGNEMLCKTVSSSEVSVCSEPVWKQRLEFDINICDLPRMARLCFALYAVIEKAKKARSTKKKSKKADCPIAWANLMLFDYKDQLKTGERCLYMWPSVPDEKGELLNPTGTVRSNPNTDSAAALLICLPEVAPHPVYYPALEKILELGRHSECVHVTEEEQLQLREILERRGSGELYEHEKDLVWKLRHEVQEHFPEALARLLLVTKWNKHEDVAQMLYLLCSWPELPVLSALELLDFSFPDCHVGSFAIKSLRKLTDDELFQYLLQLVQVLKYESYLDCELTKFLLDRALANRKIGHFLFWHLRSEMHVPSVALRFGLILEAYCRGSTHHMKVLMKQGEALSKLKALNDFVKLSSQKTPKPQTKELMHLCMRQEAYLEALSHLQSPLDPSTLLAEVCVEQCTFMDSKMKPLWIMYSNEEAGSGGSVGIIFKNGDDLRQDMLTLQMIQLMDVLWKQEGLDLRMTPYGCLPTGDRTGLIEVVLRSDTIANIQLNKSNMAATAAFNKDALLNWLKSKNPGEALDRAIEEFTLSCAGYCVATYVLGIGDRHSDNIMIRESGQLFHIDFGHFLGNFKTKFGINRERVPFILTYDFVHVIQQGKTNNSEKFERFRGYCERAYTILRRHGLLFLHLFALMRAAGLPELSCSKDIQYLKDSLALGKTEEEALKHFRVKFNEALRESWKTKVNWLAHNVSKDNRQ
Sequence of PI3Kδ (p110δ/p85α) (P27986 whole entry partner): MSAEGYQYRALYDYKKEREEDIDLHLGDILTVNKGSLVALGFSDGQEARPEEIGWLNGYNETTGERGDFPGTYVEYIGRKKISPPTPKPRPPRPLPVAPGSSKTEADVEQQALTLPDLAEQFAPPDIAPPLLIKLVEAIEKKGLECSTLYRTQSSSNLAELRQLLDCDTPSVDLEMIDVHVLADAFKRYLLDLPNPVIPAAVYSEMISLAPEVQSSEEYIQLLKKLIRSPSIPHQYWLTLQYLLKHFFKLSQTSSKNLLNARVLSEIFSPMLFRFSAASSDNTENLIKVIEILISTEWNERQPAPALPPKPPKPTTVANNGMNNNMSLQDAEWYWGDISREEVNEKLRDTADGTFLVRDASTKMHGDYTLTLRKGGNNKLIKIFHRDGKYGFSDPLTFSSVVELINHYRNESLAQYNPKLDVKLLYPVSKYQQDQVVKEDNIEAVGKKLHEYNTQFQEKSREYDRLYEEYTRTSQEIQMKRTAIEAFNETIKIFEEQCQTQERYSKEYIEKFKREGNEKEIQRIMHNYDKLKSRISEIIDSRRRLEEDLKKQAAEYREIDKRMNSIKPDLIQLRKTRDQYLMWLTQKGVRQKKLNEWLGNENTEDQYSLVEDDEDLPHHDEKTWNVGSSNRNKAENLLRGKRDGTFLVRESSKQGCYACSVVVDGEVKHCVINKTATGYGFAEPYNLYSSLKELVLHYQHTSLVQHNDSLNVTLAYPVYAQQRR
Protocol: [γ-^33P]ATP (10 mCi/mL) was purchased from Perking Elmer (Waltham, Mass.). […] PI3Kδ (p110δ/p85α) was purchased from Millipore (Bedford, Mass.). ATP, MgCl2, DTT, EDTA, MOPS and CHAPS were purchased from Sigma-Aldrich (St. Louis, Mo.). Wheat Germ Agglutinin (WGA) YSi SPA Scintillation Beads was purchased from GE healthcare life sciences (Piscataway, N.J.). The kinase reaction was conducted in polystyrene 384-well matrix white plate from Thermo Fisher Scientific in a final volume of 25 μL. Inhibitors were first diluted serially in DMSO and added to the plate wells before the addition of other reaction components. The final concentration of DMSO in the assay was 0.5%. […] Reactions were initiated by the addition of ATP, the final reaction mixture consisted of 20 μM PIP2, 20 μM ATP, 0.2 μCi [γ-^33P] ATP, 4 nM PI3Kδ. Reactions were incubated for 210 min and terminated by the addition of 40 μL SPA beads suspended in quench buffer: 150 mM potassium phosphate pH 8.0, 20% glycerol. 25 mM EDTA, 400 μM ATP. The final concentration of SPA beads was 1.0 mg/mL. After the plate sealing, plates were shaken overnight at room temperature and centrifuged at 1800 rpm for 10 minutes, the radioactivity of the product was determined by scintillation counting on Topcount (Perking Elmer).

[7] = tested on: Pfeiffer human tumor xenograft; assay: Pfeiffer model of lymphoma (human tumor xenograft in SCID mice); assay type: in vivo, mouse
Protocol: Female SCID mice, (5 to 8 weeks of age, Charles River Laboratories, Wilmington, Mass.) were inoculated with 1×10^7 tumor cells (Pfeiffer, ATCC #CRL-2632, Manassas, Va.) and matrigel (BD Biosciences #354234) in 0.2 mL sterile saline. The inoculation was performed subcutaneously on the flank. Tumor tissue fragments (approximately 3 mm×3 mm) were collected 3 to 6 weeks after the inoculation of cultured cells and implanted subcutaneously in lieu of cellular inoculation. Tissue fragments were implanted as solid pieces using blunt-tip forceps. The treatment of tumor bearing mice was started 15 to 25 days after tumor inoculation, depending upon the tumor size. Animals were sorted to obtain roughly equivalent mean tumor volumes in each group. Minimum mean tumor volume in all groups was 150 mm3 on the first day of treatment and groups consisted of 7 animals. Experimental therapeutic agent, Example 347, was administered to mice orally (PO). Treatment frequency was 2 times daily for a minimum of 14 days for efficacy. The size of subcutaneous tumors was measured 2 to 3 times weekly using a digital caliper. The tumor volume was calculated by measuring the tumor in 2 dimensions and utilizing the equation: Volume=[Length×(Width2)]/2; where the larger number was length, and the smaller number width. If multiple tumors were formed, the final volume was the sum of the individual tumors subject to the same equation: eg, 2 tumors; Volume={[L1×(W1)2]/2}+{[L2×(W2)2]/2}. Effects on tumor growth were reported as percent tumor growth inhibition (% TGI). Percent TGI was calculated with the equation: (1−(Tx vol./control vol.))*100, where control volume was the vehicle or untreated tumor volume on a given day, and Tx volume was any treatment group tumor volume on that same day. Statistical differences between treatment and vehicle controls were assessed using ANOVA: Single Factor test.
Compound 32c (Table 2 supra) was evaluated as a single agent in the Pfeiffer human tumor xenograft model of diffuse large B-cell lymphoma, a subtype of NHL. […] Therefore, a tumor model was established based on subcutaneous inoculation of tumor cells into immune compromised SCID mice and tumor-bearing mice received twice daily oral doses of vehicle or Compound 32c at 0.3, 1, 3, or 10 mg/kg for 14 days.

[8] = 10% FBS + IL10, ATP readout, Compound 16 at 1 μM in combination

Sequence of human JAK1 (a.a. 837-1142) (P23458 whole entry, looked up): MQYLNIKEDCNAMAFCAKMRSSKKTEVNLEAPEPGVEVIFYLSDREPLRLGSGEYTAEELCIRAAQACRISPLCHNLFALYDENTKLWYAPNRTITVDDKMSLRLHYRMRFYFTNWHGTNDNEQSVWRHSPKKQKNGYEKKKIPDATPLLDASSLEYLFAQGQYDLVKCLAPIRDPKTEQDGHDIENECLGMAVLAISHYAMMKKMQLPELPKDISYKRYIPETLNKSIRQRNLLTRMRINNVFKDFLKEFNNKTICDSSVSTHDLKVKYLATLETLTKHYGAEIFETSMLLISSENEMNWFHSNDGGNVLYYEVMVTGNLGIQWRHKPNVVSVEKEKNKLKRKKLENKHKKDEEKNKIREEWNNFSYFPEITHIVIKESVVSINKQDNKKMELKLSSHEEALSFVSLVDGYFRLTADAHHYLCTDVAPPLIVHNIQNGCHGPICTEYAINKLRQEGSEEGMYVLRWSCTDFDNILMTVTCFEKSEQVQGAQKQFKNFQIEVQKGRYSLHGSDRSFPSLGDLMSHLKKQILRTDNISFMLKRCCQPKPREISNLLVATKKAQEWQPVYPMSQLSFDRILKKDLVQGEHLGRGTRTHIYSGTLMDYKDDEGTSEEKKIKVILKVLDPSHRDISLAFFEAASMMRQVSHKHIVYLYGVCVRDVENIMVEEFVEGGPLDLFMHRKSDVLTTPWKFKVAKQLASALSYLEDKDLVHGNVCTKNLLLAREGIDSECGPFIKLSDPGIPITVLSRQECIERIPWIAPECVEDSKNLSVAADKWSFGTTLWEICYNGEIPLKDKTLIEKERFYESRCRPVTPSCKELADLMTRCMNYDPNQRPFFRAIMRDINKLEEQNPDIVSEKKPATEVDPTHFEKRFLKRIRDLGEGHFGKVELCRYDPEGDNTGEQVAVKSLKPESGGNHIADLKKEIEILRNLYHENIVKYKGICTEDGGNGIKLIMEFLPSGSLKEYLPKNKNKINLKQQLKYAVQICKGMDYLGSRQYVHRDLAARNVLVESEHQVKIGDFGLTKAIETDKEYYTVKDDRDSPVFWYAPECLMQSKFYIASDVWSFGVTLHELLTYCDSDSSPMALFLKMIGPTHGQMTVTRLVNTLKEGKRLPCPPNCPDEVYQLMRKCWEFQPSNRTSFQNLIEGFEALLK

C[C@H](NC(=O)c1cc(F)c(N2CC(CC#N)(n3cc(-c4ncnc5[nH]ccc45)cn3)C2)cc1F)C(F)(F)F [Compound 16, 4-{3-(cyanomethyl)-3-[4-(7H-pyrrolo[2,3-d]pyrimidin-4-yl)-1H-pyrazol-1-yl]azetidin-1-yl}-2,5-difluoro-N-[(1S)-2,2,2-trifluoro-1-methylethyl]benzamide]
IC50 [1]: < 10 nM
STAT3 phosphorylation [2]: inhibition
pAKT [2]: no effect
apoptosis (Annexin-V staining) [3]: neither agent alone had a significant effect
IC50 [4, 8]: > 1000 nM
JAK2/JAK1 [5]: >10

Cc1csc2nc([C@H](C)Nc3ncnc4[nH]cnc34)c(-c3cccc(F)c3)c(=O)n12 [Compound 28, (S)-7-(1-(9H-purin-6-ylamino)ethyl)-6-(3-fluorophenyl)-3-methyl-5H-thiazolo[3,2-a]pyrimidin-5-one]
STAT3 phosphorylation [2]: did not
pAKT [2]: complete inhibition
apoptosis (Annexin-V staining) [3]: neither agent alone had a significant effect
IC50 [4, 8]: 6360 nM
IC50 ([4]; -IL-10, ATP readout): 670 nM

COc1c(C(C)n2nc(C)c3c(N)ncnc32)cc(Cl)c(C#N)c1C1CN(C[C@H](C)O)C1 (stereo partly drawn) [Compound 29, 4-[1-(4-amino-3-methyl-1H-pyrazolo[3,4-d]pyrimidin-1-yl)ethyl]-6-chloro-2-{1-[(2S)-2-hydroxypropyl]azetidin-3-yl}-3-methoxybenzonitrile]
IC50 [6]: < 50 nM

COc1c(C(C)n2nc(C)c3c(N)ncnc32)cc(Cl)c(C#N)c1C1CN(CCO)C1 (stereo not shown) [Compound 30, 4-[1-(4-amino-3-methyl-1H-pyrazolo[3,4-d]pyrimidin-1-yl)ethyl]-6-chloro-2-[1-(2-hydroxyethyl)azetidin-3-yl]-3-methoxybenzonitrile]
IC50 [6]: < 50 nM

CCOc1c(C(C)n2nc(C)c3c(N)ncnc32)cc(C)c(C#N)c1-c1ccc(C(=O)N(C)C)nc1 (stereo not shown) [Compound 31, 5-{3-[1-(4-amino-3-methyl-1H-pyrazolo[3,4-d]pyrimidin-1-yl)ethyl]-6-cyano-2-ethoxy-5-methylphenyl}-N,N-dimethylpyridine-2-carboxamide]
IC50 [6]: < 50 nM

CCOc1c(C(C)n2nc(C)c3c(N)ncnc32)cc(Cl)c(F)c1C1CNC(=O)C1 (stereo not shown) [Compound 32c, 4-{3-[1-(4-amino-3-methyl-1H-pyrazolo[3,4-d]pyrimidin-1-yl)ethyl]-5-chloro-2-ethoxy-6-fluorophenyl}pyrrolidin-2-one]
percent tumor growth inhibition ([7]; 0.3 mg/kg oral twice daily for 14 days): 22%
percent tumor growth inhibition ([7]; 1 mg/kg oral twice daily for 14 days): 24%
percent tumor growth inhibition ([7]; 3 mg/kg oral twice daily for 14 days): 36%
percent tumor growth inhibition ([7]; 10 mg/kg oral twice daily for 14 days): 58%
anti-proliferative effects on Pfeiffer cancer cells ([4]; in vitro): sensitive
